For test [1], the target named is T1, HiBit-BRG1 fusion protein (Homo sapiens, UniProt P51532).
T1 construct: expressed in transfected cells
Description: HiBiT-BRG1 cell-based degradation assay (Nano-Glo HiBiT Lytic Detection, 24 h). Conditions: HeLa cells expressing HiBit-BRG1 and LgBit; for DC50: read-out: BRG1 HiBit Degradation IC50; for Dmax: HeLa, top dose 30 μM, read-out: BRG1 HiBit Degradation Maximum measured. A digest of the protocol:
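Stable HeLa line expressing HiBiT-BRG1 and LgBiT, seeded at 5000 cells/well; luminescence read after lytic Nano-Glo HiBiT reagent and 10 min shaking at RT. % degradation normalised between DMSO (high control) and 2 μM reference BRM/BRG1 degrader (low control).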
For orientation: HiBiT is a short tag that completes a luciferase, so light tracks the accessible tagged protein.

In the next test the target is T2, HiBit-BRM fusion protein (Homo sapiens, UniProt P51531).
T2 construct: expressed in transfected cells
T2 sequence (P51531 whole entry, the tested form may be a part): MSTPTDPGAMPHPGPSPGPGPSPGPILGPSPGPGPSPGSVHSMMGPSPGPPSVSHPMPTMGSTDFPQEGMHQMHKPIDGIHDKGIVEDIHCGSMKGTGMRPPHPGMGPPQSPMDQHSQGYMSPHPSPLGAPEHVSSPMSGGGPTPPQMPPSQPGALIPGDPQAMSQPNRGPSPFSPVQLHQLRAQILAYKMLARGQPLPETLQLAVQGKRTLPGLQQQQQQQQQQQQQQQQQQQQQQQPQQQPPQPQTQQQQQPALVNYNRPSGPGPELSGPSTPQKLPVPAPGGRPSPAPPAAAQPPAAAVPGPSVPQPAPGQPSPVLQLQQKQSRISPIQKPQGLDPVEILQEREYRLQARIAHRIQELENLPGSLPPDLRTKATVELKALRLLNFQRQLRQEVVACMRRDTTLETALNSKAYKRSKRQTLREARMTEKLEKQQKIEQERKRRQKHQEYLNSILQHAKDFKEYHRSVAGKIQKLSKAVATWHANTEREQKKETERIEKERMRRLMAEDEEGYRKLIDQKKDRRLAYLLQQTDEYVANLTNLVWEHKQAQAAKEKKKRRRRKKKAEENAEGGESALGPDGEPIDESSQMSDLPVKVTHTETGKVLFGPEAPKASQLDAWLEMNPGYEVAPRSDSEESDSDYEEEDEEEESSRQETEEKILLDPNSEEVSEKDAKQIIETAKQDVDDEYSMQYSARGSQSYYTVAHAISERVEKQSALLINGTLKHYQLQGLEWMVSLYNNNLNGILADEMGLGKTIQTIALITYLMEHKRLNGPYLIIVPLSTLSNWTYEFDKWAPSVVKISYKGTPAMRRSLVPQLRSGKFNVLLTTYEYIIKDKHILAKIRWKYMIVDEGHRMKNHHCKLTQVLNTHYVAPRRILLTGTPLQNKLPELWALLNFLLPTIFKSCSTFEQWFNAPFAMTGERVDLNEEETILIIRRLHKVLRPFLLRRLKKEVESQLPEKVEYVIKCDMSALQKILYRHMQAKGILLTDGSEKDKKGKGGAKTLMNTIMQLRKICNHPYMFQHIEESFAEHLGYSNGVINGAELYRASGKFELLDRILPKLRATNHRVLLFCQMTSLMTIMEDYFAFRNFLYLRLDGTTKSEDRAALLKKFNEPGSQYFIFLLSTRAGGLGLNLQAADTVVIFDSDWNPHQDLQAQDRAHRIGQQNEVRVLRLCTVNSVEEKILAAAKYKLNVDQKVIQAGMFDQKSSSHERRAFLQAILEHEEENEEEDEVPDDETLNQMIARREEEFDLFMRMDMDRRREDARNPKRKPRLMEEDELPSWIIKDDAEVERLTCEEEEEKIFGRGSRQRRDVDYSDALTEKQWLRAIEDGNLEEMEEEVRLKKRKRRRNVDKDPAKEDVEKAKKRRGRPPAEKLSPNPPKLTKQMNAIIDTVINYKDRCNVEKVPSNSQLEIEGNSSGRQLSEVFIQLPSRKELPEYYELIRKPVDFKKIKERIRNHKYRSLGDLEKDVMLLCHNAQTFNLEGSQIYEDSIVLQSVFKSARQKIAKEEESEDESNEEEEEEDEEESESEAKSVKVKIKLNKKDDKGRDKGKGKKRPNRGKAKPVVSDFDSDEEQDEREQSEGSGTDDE
Description: HiBiT-BRM cell-based degradation assay (Nano-Glo HiBiT Lytic Detection, 24 h). As to conditions: HeLa cells expressing HiBiT-BRM; for DC50: read-out: BRM HiBit Degradation IC50; for BRM HiBit Degradation Maximum measured: top dose 30 μM. A digest of the protocol:
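Luminescence from reconstituted NanoBiT luciferase in lysed HeLa HiBiT-BRM cells served as the measure of remaining BRM after 24 h treatment. Compounds were tested from 30 μM final downward in 3-fold steps. DMSO and 2 μM of a standard BRM/BRG1 degrader defined the scale limits.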

T1 sequence (P51532 whole entry, the tested form may be a part): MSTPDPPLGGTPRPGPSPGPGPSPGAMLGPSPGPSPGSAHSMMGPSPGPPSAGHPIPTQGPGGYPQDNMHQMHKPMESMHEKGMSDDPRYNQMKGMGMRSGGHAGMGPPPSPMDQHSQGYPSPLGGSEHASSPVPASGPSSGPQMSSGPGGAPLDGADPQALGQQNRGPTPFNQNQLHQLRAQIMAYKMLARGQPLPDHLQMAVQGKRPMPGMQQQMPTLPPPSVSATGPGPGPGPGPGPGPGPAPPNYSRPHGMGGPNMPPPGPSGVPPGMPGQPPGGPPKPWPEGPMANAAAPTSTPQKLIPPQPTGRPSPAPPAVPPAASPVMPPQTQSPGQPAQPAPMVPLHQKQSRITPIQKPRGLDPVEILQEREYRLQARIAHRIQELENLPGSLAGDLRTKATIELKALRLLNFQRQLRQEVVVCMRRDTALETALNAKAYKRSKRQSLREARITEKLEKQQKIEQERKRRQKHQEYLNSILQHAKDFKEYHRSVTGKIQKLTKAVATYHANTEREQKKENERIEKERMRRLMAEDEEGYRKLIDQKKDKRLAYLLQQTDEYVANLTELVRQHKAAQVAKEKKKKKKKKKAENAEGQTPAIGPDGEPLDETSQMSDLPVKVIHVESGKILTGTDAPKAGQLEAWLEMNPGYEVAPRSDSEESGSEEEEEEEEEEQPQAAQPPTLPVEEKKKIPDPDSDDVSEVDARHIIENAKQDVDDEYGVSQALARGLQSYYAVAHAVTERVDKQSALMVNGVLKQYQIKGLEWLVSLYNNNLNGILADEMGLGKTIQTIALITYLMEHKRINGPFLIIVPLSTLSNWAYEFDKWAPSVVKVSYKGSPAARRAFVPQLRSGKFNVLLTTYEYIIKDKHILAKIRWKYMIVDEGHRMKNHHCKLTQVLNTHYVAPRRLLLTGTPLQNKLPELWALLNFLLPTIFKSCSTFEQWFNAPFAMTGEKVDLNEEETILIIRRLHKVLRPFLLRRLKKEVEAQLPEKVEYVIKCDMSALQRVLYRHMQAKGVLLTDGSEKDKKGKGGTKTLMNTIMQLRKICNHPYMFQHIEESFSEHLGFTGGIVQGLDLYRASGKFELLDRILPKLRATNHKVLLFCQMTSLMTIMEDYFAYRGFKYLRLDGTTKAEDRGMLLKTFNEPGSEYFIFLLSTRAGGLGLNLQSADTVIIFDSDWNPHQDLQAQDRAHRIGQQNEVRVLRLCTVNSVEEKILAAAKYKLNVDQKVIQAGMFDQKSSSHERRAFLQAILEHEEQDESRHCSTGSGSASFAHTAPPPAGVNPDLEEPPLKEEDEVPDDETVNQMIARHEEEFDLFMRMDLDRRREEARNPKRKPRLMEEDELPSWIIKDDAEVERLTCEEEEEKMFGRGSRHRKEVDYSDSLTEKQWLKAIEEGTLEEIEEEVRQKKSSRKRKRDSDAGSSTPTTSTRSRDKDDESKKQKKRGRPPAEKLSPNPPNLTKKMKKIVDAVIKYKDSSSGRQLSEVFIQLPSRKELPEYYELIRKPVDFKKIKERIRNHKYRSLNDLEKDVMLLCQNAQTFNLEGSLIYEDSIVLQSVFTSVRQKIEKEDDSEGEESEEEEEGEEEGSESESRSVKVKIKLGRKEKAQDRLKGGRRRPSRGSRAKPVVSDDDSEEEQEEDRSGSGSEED

As for `Cc1cc(C(=O)NCC(=O)Nc2nc(-c3cccc(-c4ccnc(N(C)CC(=O)NCCCCCNc5cccc6c5C(=O)N(C5CCC(=O)NC5=O)C6=O)c4)c3)cs2)cn1S(C)(=O)=O` (stereo not shown) [Compound 125, N-(2-((4-(3-(2-((2-((5-((2-(2,6-dioxopiperidin-3-yl)-1,3-dioxoisoindolin-4-yl)amino)pentyl)amino)-2-oxoethyl)(methyl)amino)pyridin-4-yl)phenyl)thiazol-2-yl)amino)-2-oxoethyl)-5-methyl-1-(methylsulfonyl)-1H-pyrrole-3-carboxamide], in test [1], the DC50 was more than 10000 nM and the Dmax is less than 50%. In addition, at HiBit-BRM fusion protein, the DC50 is more than 10000 nM and the “BRM HiBit Degradation Maximum measured” value was “C (‘C’ = Maximum degradation <50%)”.

Take `Cc1ncsc1-c1ccc(CNC(=O)[C@@H]2C[C@@H](O)CN2C(=O)[C@@H](NC(=O)CN2CC3(CN(CC(=O)NCc4cccc(-c5cccc(-c6csc(NC(=O)CNC(=O)c7ccn(S(C)(=O)=O)c7)n6)c5)c4)C3)C2)C(C)(C)C)cc1.O=C(O)C(F)(F)F` [Compound 166, (2S,4R)-4-hydroxy-1-[(2S)-2-(2-[6-[([[3′-(2-[2-[(1-methanesulfonylpyrrol-3-yl)formamido]acetamido]-1,3-thiazol-4-yl)-[1,1′-biphenyl]-3-yl]methyl]carbamoyl)methyl]-2,6-diazaspiro[3.3]heptan-2-yl]acetamido)-3,3-dimethylbutanoyl]-N-[[4-(4-methyl-1,3-thiazol-5-yl)phenyl]methyl]pyrrolidine-2-carboxamide trifluoroacetate]: in test [1], the DC50 is more than 10000 nM and the Dmax was less than 50%. Besides, on HiBit-BRM fusion protein, the DC50 was in the range of 100 to 1000 nM; the “BRM HiBit Degradation Maximum measured” value was “B (‘B’ = Maximum degradation ≥50% and ≤75%)”.

For `Cc1cc(C(=O)NCC(=O)Nc2nc(-c3cccc(-c4ccnc(N(C)CC(=O)NCCCCCCCCNC(=O)COc5cccc6c5C(=O)N(C5CCC(=O)NC5=O)C6=O)c4)c3)cs2)cn1S(C)(=O)=O` (stereo not shown) [Compound 131, N-(2-((4-(3-(2-((2-((8-(2-((2-(2,6-dioxopiperidin-3-yl)-1,3-dioxoisoindolin-4-yl)oxy)acetamido)octyl)amino)-2-oxoethyl)(methyl)amino)pyridin-4-yl)phenyl)thiazol-2-yl)amino)-2-oxoethyl)-5-methyl-1-(methylsulfonyl)-1H-pyrrole-3-carboxamide], in test [1], the DC50 is more than 10000 nM and the Dmax is less than 50%. On HiBit-BRM fusion protein, the DC50 was more than 10000 nM and the “BRM HiBit Degradation Maximum measured” value is recorded as “C (‘C’ = Maximum degradation <50%)”.

On to `CS(=O)(=O)n1ccc(C(=O)N[C@@H](COCc2ccc(C(=O)NCCOc3cccc(OCCNc4ccc5c(c4)C(=O)N(C4CCC(=O)NC4=O)C5=O)c3)cc2)C(=O)Nc2nc(-c3ccccc3)cs2)c1` (stereo partly drawn) [Compound 207, N-[2-[3-(2-[[2-(2,6-dioxopiperidin-3-yl)-1,3-dioxoisoindol-5-yl]amino]ethoxy)phenoxy]ethyl]-4-[[(2S)-2-[(1-methanesulfonylpyrrol-3-yl)formamido]-2-[(4-phenyl-1,3-thiazol-2-yl)carbamoyl]ethoxy]methyl]benzamide], for which, in test [1], the DC50 lay within 100 to 1000 nM and the Dmax was in the range of 50 to 75%. Also, at HiBit-BRM fusion protein, the DC50 was in the range of 100 to 1000 nM; the “BRM HiBit Degradation Maximum measured” value was “B (‘B’ = Maximum degradation ≥50% and ≤75%)”.

`Cc1ncsc1-c1ccc(CNC(=O)[C@@H]2C[C@@H](O)CN2C(=O)[C@@H](NC(=O)COCCOCCNC(=O)CCCOC[C@H](NC(=O)c2ccn(S(C)(=O)=O)c2)C(=O)Nc2nc(-c3ccccc3)cs2)C(C)(C)C)cc1` [Compound 173, (2S,4R)-4-hydroxy-1-[(2S)-2-[2-[2-(2-[4-[(2S)-2-[(1-methanesulfonylpyrrol-3-yl)formamido]-2-[(4-phenyl-1,3-thiazol-2-yl)carbamoyl]ethoxy]butanamido]ethoxy)ethoxy]acetamido]-3,3-dimethylbutanoyl]-N-[[4-(4-methyl-1,3-thiazol-5-yl)phenyl]methyl]pyrrolidine-2-carboxamide]: in test [1], the DC50 was more than 10000 nM and the Dmax is less than 50%. Besides, on HiBit-BRM fusion protein, the DC50 was more than 10000 nM and the “BRM HiBit Degradation Maximum measured” value was “C (‘C’ = Maximum degradation <50%)”.

`CS(=O)(=O)n1ccc(C(=O)N[C@@H](CCOCCCC(=O)NCCNc2ccc3c(c2)C(=O)N(C2CCC(=O)NC2=O)C3=O)C(=O)Nc2nc(-c3ccccc3)cs2)c1` (stereo partly drawn) [Compound 286, (2S)-4-[3-[(2-[[2-(2,6-dioxopiperidin-3-yl)-1,3-dioxoisoindol-5-yl]amino]ethyl)carbamoyl]propoxy]-2-[(1-methanesulfonylpyrrol-3-yl)formamido]-N-(4-phenyl-1,3-thiazol-2-yl)butanamide]: in test [1], the DC50 was more than 10000 nM and the Dmax was less than 50%. For the same molecule, at HiBit-BRM fusion protein, the DC50 is more than 10000 nM and the “BRM HiBit Degradation Maximum measured” value was “C (‘C’ = Maximum degradation <50%)”.

Regarding `CS(=O)(=O)n1ccc(C(=O)N[C@@H](CCOCCCC(=O)NCCOC2CN(c3ccc4c(c3)C(=O)N(C3CCC(=O)NC3=O)C4=O)C2)C(=O)Nc2nc(-c3ccccc3)cs2)c1` (stereo partly drawn) [Compound 278, (2S)-4-(3-[[2-([1-[2-(2,6-dioxopiperidin-3-yl)-1,3-dioxoisoindol-5-yl]azetidin-3-yl]oxy)ethyl]carbamoyl]propoxy)-2-[(1-methanesulfonylpyrrol-3-yl)formamido]-N-(4-phenyl-1,3-thiazol-2-yl)-butanemide], in test [1], the DC50 is more than 10000 nM and the Dmax is less than 50%. For the same molecule, at HiBit-BRM fusion protein, the DC50 was more than 10000 nM and the “BRM HiBit Degradation Maximum measured” value was “C (‘C’ = Maximum degradation <50%)”.

For `CC(C)(C(=O)NCCCCCCCCNC(=O)COc1cccc2c1C(=O)N(C1CCC(=O)NC1=O)C2=O)n1ccc(-c2cccc(-c3csc(NC(=O)CNC(=O)c4ccn(S(C)(=O)=O)c4)n3)c2)n1` (stereo not shown) [Compound 8, N-(2-((4-(3-(1-(1-((8-(2-((2-(2,6-dioxopiperidin-3-yl)-1,3-dioxoisoindolin-4-yl)oxy)acetamido)octyl)amino)-2-methyl-1-oxopropan-2-yl)-1H-pyrazol-3-yl)phenyl)thiazol-2-yl)amino)-2-oxoethyl)-1-(methylsulfonyl)-1H-pyrrole-3-carboxamide], in test [1], the DC50 lay within 100 to 1000 nM and the Dmax was in the range of 50 to 75%. On HiBit-BRM fusion protein, the DC50 lay in the range of 100 to 1000 nM; the “BRM HiBit Degradation Maximum measured” value was “B (‘B’ = Maximum degradation ≥50% and ≤75%)”.

As for `CN(CC(=O)NCCCCNc1ccc2c(c1)C(=O)N(C1CCC(=O)NC1=O)C2=O)c1cc(-c2cccc(-c3csc(NC(=O)CNC(=O)c4ccn(S(C)(=O)=O)c4)n3)c2)ccn1` (stereo not shown) [Compound 67], in test [1], the DC50 was more than 10000 nM and the Dmax was less than 50%. At HiBit-BRM fusion protein, the DC50 is more than 10000 nM and the “BRM HiBit Degradation Maximum measured” value is “C (‘C’ = Maximum degradation <50%)”.

Turning to `Cc1ncsc1-c1ccc(CNC(=O)[C@@H]2C[C@@H](O)CN2C(=O)[C@@H](NC(=O)COCCOCC(=O)N2CCN(c3cc(-c4cccc(-c5csc(NC(=O)CNC(=O)c6ccn(S(C)(=O)=O)c6)n5)c4)ccn3)CC2)C(C)(C)C)cc1` [Compound 75, N-(2-((4-(3-(2-(4-(2-(2-(2-(((S)-1-((2S,4R)-4-hydroxy-2-((4-(4-methylthiazol-5-yl)benzyl)carbamoyl)pyrrolidin-1-yl)-3,3-dimethyl-1-oxobutan-2-yl)amino)-2-oxoethoxy)ethoxy)acetyl)piperazin-1-yl)pyridin-4-yl)phenyl)thiazol-2-yl)amino)-2-oxoethyl)-1-(methylsulfonyl)-1H-pyrrole-3-carboxamide], in test [1], the DC50 was in the range of 100 to 1000 nM and the Dmax is more than 75%. Further, at HiBit-BRM fusion protein, the DC50 lay within 100 to 1000 nM; the “BRM HiBit Degradation Maximum measured” value is “B (‘B’ = Maximum degradation ≥50% and ≤75%)”.
